Laboratory results published in patent US8716284B2, “Adamantyl diamide derivatives and uses of same” (H. Lundbeck A/S, priority 2008, dated 2014).

How the values were obtained:
[1] = molecular target: mGluR5 (Homo sapiens, UniProt P41594); assay: Radioligand binding assay, [3H]MPEP filtration binding to membrane homogenates; details: 5 nM [3H]MPEP; Ki calculated from IC50 by Cheng-Prusoff
Method: Binding assays were performed as described in [J. A. O'Brien et al. Mol. Pharmacol., 2003, 64, 731-740] with slight modifications. Briefly, after thawing, the membrane homogenates were resuspended in 50 mM Tris-HCl, 0.9% NaCl binding buffer at pH 7.4 to a final assay concentration of 40 μg protein/well for [^3H]methoxy-5-(2-pyridinylethynyl)pyridine ([^3H] MPEP) (American Radiolabeled Chemicals, Inc., St. Louis, Mo.) filtration binding. Incubations included 5 nM [^3H] MPEP, membranes and either buffer or varying concentrations of compound. Samples were incubated for 60 min at room temperature with shaking. Non-specific binding was defined with 10 μM MPEP. After incubation, samples were filtered over a GF/C filter (presoaked in 0.25% polyethyleneimine (PEI)) and then washed 4 times using a Tomtec® Harvester 96® Mach III cell harvester (Tomtec, Hamden, Conn.) with 0.5 mL ice-cold 50 mM Tris-HCl (pH 7.4).
IC50 values were derived from the inhibition curve and Ki values were calculated according to the Cheng and Prusoff equation of Ki=IC50/(1+[L]/Kd) described in [Y. Cheng and W. H. Prusoff Biochem. Pharmacol. 1973, 22, 3099-3108] where [L] is the concentration of radioligand and Kd is its dissociation constant at the receptor, derived from the saturation isotherm.

[2] = molecular target: T1, rat metabotropic glutamate receptor 5 (mGluR5) (Rattus norvegicus, UniProt P31424); assay: Calcium mobilization assay (FLIPR) for negative or positive allosteric activity, HEK 293 cells; type: cell-based; details: HEK293, negative allosteric modulation, inhibition of EC80 glutamate response; read-out: FLIPR maximum inhibition
T1 construct: expressed in transfected cells; host or cells: HEK 293
T1 sequence (P31424 21-1171 isoform P31424-2 limits assumed): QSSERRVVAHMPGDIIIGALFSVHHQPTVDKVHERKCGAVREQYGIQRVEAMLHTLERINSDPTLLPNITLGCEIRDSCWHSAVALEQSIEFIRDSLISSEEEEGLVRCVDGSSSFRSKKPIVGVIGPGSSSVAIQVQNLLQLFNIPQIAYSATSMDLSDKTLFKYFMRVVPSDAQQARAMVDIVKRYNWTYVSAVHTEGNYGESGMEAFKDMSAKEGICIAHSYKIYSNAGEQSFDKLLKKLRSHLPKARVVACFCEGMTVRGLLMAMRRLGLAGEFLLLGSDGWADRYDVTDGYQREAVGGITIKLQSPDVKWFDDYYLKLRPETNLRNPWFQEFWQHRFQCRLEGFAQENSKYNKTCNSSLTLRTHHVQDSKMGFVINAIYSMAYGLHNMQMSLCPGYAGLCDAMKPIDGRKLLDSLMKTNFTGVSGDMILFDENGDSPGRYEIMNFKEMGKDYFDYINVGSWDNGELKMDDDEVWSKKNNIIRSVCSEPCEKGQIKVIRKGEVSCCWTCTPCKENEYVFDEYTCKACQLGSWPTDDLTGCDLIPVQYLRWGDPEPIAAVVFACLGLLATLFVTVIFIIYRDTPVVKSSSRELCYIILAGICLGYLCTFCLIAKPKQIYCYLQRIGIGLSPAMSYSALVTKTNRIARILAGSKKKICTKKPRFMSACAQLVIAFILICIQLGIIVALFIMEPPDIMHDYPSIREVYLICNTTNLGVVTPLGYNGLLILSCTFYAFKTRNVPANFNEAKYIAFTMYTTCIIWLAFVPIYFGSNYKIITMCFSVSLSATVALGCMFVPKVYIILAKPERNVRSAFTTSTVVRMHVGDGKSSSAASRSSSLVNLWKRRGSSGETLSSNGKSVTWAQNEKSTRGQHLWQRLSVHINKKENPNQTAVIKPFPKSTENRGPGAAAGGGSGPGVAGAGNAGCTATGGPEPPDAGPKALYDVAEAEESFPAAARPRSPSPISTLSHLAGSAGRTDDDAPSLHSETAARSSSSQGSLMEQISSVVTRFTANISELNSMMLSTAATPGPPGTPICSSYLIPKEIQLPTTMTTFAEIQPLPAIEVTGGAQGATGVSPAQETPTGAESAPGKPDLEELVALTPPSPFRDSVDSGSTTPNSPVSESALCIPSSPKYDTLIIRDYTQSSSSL
Outline: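 Peak Fluo-4 calcium signal over 3 min at room temperature, minus basal, fitted by Hill equation, in stable rat mGluR5 HEK 293 cells (HBSS/HEPES pH 7.4, BSA, probenecid). Inhibition scored against EC80 glutamate, potentiation against EC20 glutamate, glutamate given with compound.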

[3] = system: adult, male CD1 mice; assay: Mouse marble burying (mMB) assay, anxiolytic effect; type: in vivo; details: for mMB EDmin: SC given for Example 58
Method: (§1) Examples 1, 2 and 58 were evaluated in vivo for anxiolytic effects using (1) mouse marble burying (mMB) methods similar to those described in [K. Njung'e, K. and S. L. Handley, Pharmacology, Biochemistry and Behavior, 1991, 38, 63-67] and (2) a modified Geller-Seifter conflict test described in [N. A. Moore et al. Behavioural Pharmacology. 1994, 5, 196-202].
More specifically for the mMB testing, adult, male CD1 mice (Charles River Laboratories (Kingston, N.Y.)), weighing 25 to 30 g, were used. All animals were group-housed in a standard colony room with a 12:12 light/dark cycle (lights on at 6:00 am) for at least one week prior to testing. Food and water were provided ad libitum. Animals were weighed, tail marked, and randomly assigned to treatment groups before testing.
For each test, sixty minutes after the injection of vehicle or test compound, or 30 min after injection of the positive control, buspirone, mice were individually placed into test cages containing 1.5 in of Aspen bedding (PWI brand) and two rows of 10 marbles (20 marbles per test cage total). Filter tops were used to cover each test cage. Thirty minutes later, mice were removed from test cages and returned to their home cages. The number of fully visible marbles (less than ⅔ covered with bedding) were counted and subtracted from 20 to arrive at the number of marbles buried. Twelve mice were tested per group.
Testing included multiple tests with each test performed to evaluate buspirone hydrochloride (BUS; Sigma Aldrich) (positive control) and/or a compound of the present invention. Each compound was dissolved immediately prior to testing in 20% beta-cyclodextrin (compound of the present invention) or distilled water (BUS) and administered at one or more doses (such as 3, 10, and/or 30 mg/kg) via subcutaneous (SC) or intraperitoneal (IP) injection at the indicated pretreatment times (i.e., 30, 60, or 120 min pretreatment). Doses were measured in mg drug (salt form) per kg body weight. Data was analyzed using one-way ANOVA with post-hoc Dunnett's test.

[4] = system: adult, male Sprague-Dawley rats; assay: Modified Geller-Seifter conflict test, anxiolytic effect; type: in vivo, rat; details: for Statistically significant Active dose(s): oral, Geller-Seifter assay, ANOVA with Dunnett's test or t-test; for Geller-Seifter EDmin: rat conflict test, PO for Example 58
Method: as §1
More specifically for the Geller-Seifter Conflict testing, rodent operant chambers (ENV-007CT, Med Associates Inc. (Georgia, Vt.)) and sound-attenuating chambers (ENV-018MD, Med Associates Inc.) were used. Each chamber was equipped with a house light, cue lights, grid floor to deliver foot shocks via a programmable shocker, (ENV-414, Med Associates, Inc.) and food hopper. Two levers were located on either side of the food hopper, Rats were trained to only respond on the left lever. Food reinforcement was used (Dustless Precision Pellets, 45 mg, BioServ, (Frenchtown, N.J.)). MED-PCIV software (Med Associates) was used to run experimental sessions and collect data.
Prior to beginning the Conflict procedure, animals were initially trained to lever press on fixed ratio schedules (FR 1, 2, 5, and 10). Once animals obtained 25 rewards on a FR 10 schedule for 2 consecutive days, animals began training on a three component Conflict schedule. […] These three components were repeated twice in the same order during the daily 30 minute session.
Animals were tested using a Latin-squares design, on Wednesdays and Fridays. Animals served as their own controls and received all treatments. To maintain baseline performance, animals were also trained the remaining three weekdays.
Testing was performed using 12 adult, male Sprague-Dawley rats, weighing 426-567 g (Charles River Laboratories (Kingston, N.Y.)). Animals were pair-housed in colony rooms maintained at controlled temperature (68-72° F.) and a 12-h light/dark cycle (lights on 06:00). Animals were given free access to water, while food was limited to 15 g of Bacon Lover's Treats (BioServ) after training/testing Monday through Thursday. Friday through Sunday, animals had free access to Lab Diet 5012 Rat Diet (PMI Nutrition International, LLC, Brentwood, Mo.) until cages were changed and food removed on Sunday.
Testing included multiple tests where each test was performed to evaluate either a reference compound or a compound of the present invention. Reference anxiolytics included chlordiazepoxide, diazepam and buspirone, which were dissolved in saline or water and administered via SC, IP, and/or PO, Test compounds were dissolved in 20% beta-cyclodextrin, and the pH was adjusted to 7 with NaHCO3. For each test, the compound to be evaluated was tested at one or more doses (such as 10, 20, 30 and/or 50 mg/kg) via p.o. administration 60 minutes before the test using an injection volume of 2 mL/kg in comparison with a vehicle control group. Doses were measured in mg drug (salt form) per kg body weight. Data was analyzed using Repeated Measures ANOVA with post-hoc Dunnett's test.

Chain of mGluR5 (P41594 21-1212): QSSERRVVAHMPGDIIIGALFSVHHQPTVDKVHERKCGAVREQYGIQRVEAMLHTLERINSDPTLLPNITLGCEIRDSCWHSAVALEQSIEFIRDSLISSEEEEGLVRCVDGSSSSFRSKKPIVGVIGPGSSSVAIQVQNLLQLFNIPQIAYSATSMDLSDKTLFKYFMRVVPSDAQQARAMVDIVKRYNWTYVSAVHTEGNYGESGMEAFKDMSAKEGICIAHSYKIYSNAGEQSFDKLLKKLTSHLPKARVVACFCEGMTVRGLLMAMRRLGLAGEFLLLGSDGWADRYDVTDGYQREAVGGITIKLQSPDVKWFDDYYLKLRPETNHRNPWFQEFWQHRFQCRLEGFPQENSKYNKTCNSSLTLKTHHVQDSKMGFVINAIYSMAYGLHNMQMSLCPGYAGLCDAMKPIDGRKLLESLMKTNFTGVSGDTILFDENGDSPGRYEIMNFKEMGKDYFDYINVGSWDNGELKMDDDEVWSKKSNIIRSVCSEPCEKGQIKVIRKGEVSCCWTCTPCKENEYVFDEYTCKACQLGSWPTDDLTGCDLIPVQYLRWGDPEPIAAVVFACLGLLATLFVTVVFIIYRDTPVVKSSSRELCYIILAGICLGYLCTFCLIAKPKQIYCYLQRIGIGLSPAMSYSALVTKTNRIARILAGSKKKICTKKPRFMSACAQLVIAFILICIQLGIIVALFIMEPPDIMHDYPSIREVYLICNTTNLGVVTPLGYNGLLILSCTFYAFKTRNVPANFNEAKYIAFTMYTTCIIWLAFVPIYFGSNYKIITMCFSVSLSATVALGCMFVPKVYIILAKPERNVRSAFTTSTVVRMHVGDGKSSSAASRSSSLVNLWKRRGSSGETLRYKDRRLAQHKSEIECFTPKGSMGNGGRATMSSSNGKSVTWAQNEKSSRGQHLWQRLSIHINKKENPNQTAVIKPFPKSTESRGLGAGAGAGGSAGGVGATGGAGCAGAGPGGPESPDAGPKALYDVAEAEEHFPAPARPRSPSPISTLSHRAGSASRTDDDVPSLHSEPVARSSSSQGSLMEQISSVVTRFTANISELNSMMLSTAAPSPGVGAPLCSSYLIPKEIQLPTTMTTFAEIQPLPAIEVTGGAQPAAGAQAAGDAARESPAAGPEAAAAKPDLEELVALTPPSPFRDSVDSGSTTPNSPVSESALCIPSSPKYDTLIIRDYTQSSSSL

Ki [1]	Emax [2]	SMILES	mMB EDmin [3]	Statistically significant Active dose(s) [4]	Geller-Seifter EDmin [4]	minimal effective dose ([3]; SC injection, one-way ANOVA with Dunnett's test or t-test, read-out: Statistically significant Active Dose)
6 to 700 nM	63 to 99%	Cc1cncc(C(=O)NC23CC4CC(CC(NC(=O)c5ccccn5)(C4)C2)C3)n1 [Example 58, 6-Methyl-pyrazine-2-carboxylic acid {3-[(pyridine-2-carbonyl)-amino]-adamantan-1-yl}-amide]	10 mg/kg		10 mg/kg	
6 to 700 nM	63 to 99%	Cc1cnc(C(=O)NC23CC4CC(CC(NC(=O)c5cccc(F)c5)(C4)C2)C3)cn1 [Example 94, 5-Methyl-pyrazine-2-carboxylic acid [3-(3-fluoro-benzoylamino)-adamantan-1-yl]-amide]		20 mg/kg		
	63 to 99%	Cc1cccc(C(=O)NC23CC4CC(CC(NC(=O)c5cnccn5)(C4)C2)C3)n1 [Example 41, Pyrazine-2-carboxylic acid {3-[(6-methyl-pyridine-2-carbonyl)-amino]-adamantan-1-yl}-amide]		30 mg/kg		

Continued, compound first:

SMILES	Ki [1]	Emax [2]	mMB EDmin [3]	Statistically significant Active dose(s) [4]	Geller-Seifter EDmin [4]	minimal effective dose ([3]; SC injection, one-way ANOVA with Dunnett's test or t-test, read-out: Statistically significant Active Dose)
Cc1cccc(C(=O)NC23CC4CC(C2)CC(NC(=O)c2cccc(C)n2)(C4)C3)n1 [Example 1, N,N′-(1,3-adamantylene)bis(6-methyl-pyridine-2-carboxamaide)]	6.7 nM	90 to 99%	3 mg/kg	50 mg/kg	10 mg/kg	
O=C(NC12CC3CC(C1)CC(NC(=O)c1ccccn1)(C3)C2)c1ccccn1 [Example 2, N,N′-(1,3-adamantylene)bis(2-pyridinecarboxamide)]	40 nM	90 to 99%	30 mg/kg	20 mg/kg	20 mg/kg	30 mg/kg
